Read-outs that look alike come from different tables or passages of the source.
Columns and labels:
Type in all cases: cell-based
[1] = system: SMN2; experiment: Gene panel canonical junction qPCR assay, SMN2 CJ mRNA; details: Table 9, CJ mRNA decrease, read-out: SMN2 IC50 (decrease in CJ mRNA levels)
Method: (§1) To set up 10 uL RT-qPCR reactions, cell lysates were transferred to 384-well qPCR plates containing the master mix according to the table below. The plates were sealed, gently vortexed, and spun down before the run. The volumes were adjusted accordingly in some instances where the reaction was carried in 20 uL. The table below summarizes the components of the RT-qPCR reactions:
(§2) The RT-qPCR reaction was performed using a QuantStudio (ThermoFisher) under the following fast cycling conditions. All samples and standards were analyzed at least in duplicate. In some instances, bulk room temperature (RT) step of 5-10 minutes was completed for all plates before proceeding with qPCR. The table below summarizes the PCR cycle:
(§3) The data analysis was performed by first determining the ΔCt vs the housekeeper gene. This ΔCt was then normalized against the DMSO control (ΔΔCt) and converted to RQ (relative quantification) using the 2^(−ΔΔCt) equation. The RQ were then converted to a percentage response by arbitrarily setting an assay window of 3.5 ΔCt for HTT-CJ and an assay window of 9 ΔCt for HTT-AJ. […] The percentage response was then fitted to the 4 parametric logistic equation to evaluate the concentration dependence of compound treatment. The increase in AJ mRNA is reported as AC50 (compound concentration having 50% response in AJ increase) while the decrease in CJ mRNA levels is reported as IC50 (compound concentration having 50% response in CJ decrease).
(§4) Additional studies were carried out for a larger panel of genes using the protocol provided above. The junction between flanking upstream and downstream exons was used to design canonical junction qPCR assays. At least one of the forward primer, reverse primer or the CY5-labeled 5′ nuclease probe (with 3′ quencher such as ZEN/Iowa Black FQ) was designed to overlap with the exon junction to capture the CJ mRNA transcript. BLAST was used to confirm the specificity of the probeset and parameters such as melting temperature, GC content, amplicon size, and primer dimer formation are considered during their design. Data for the decrease in CJ mRNA levels for three exemplary genes (HTT, SMN2, and Target C) analyzed in this panel are reported as IC50 (compound concentration having 50% response in CJ decrease).

[2] = system: Target C; experiment: Gene panel canonical junction qPCR assay, Target C CJ mRNA; details: Table 9, CJ mRNA decrease, read-out: Target C IC50 (decrease in CJ mRNA levels)
Method: as §1, §2, §3, §4

[3] = system: HTT; experiment: Splicing assay (RT-qPCR on cell lysates) monitoring HTT splice variants: AJ and CJ mRNA; details: concentration having 50% response
Method: Example 69: Exemplary Splicing Assay for Monitoring Expression Levels of Splice Variants
as §1, §2, §3

[4] = system: HTT; experiment: Gene panel canonical junction qPCR assay, HTT CJ mRNA; details: Table 9, CJ mRNA decrease, read-out: HTT IC50 (decrease in CJ mRNA levels)
Method: as §1, §2, §3, §4

[5] = Table 8, decrease in CJ mRNA, read-out: HTT CJ AC50
[6] = Table 8, increase in AJ mRNA, read-out: HTT AJ AC50
[7] = Table 7, decrease in CJ mRNA, read-out: HTT CJ AC50
[8] = Table 7, increase in AJ mRNA, read-out: HTT AJ AC50

Row | Structure (SMILES) | IC50 [1] [nM] | IC50 [2] [nM] | AC50 [3, 5] [nM] | AC50 [3, 6] [nM] | IC50 [4] [nM] | AC50 [3, 7] [nM] | AC50 [3, 8] [nM]
1 | CN(c1ccc(-c2ccc(-c3cnc(=O)[nH]c3)c3scnc23)nn1)C1CC(C)(C)NC(C)(C)C1 [Compound 179] | 100 to 1000 | 100 to 1000 | 100 to 1000 | 100 to 1000 | 100 to 1000 | – | –
2 | c1nc2c(-c3cn[nH]c3)ccc(-c3ccc(N4CCC5(CCNC5)CC4)nn3)c2s1 [Compound 192] | > 10000 | > 10000 | > 10000 | > 10000 | > 10000 | – | –
3 | c1nc2c(-c3cn[nH]c3)ccc(-c3ccc(N4CCCC5(CNC5)C4)nn3)c2s1 [Compound 189] | > 10000 | > 10000 | > 10000 | > 10000 | > 10000 | – | –
4 | CN(c1ccc(-c2ccc(-c3cn[nH]c3)c3ncsc23)nn1)[C@H]1C[C@]2(C)CC[C@](C)(C1)N2 [Compound 204, (exo-)-N,1,5-trimethyl-N-[6-[4-(1H-pyrazol-4-yl)-1,3-benzothiazol-7-yl]pyridazin-3-yl]-8-azabicyclo[3.2.1]octan-3-amine] | < 100 | < 100 | < 100 | < 100 | < 100 | – | –
5 | c1n[nH]cc1-c1ccc(-c2ccc(N3CC4(CCCNC4)C3)nn2)c2[nH]ncc12 [Compound 218] | > 10000 | > 10000 | > 10000 | > 10000 | > 10000 | – | –
6 | CN(c1ccc(-c2ccc(-c3cn[nH]c3)c3ncsc23)nn1)C1CCNCC1 [Compound 222, N-methyl-N-(piperidin-4-yl)-6-[4-(1H-pyrazol-4-yl)-1,3-benzothiazol-7-yl]pyridazin-3-amine] | 100 to 1000 | 1000 to 10000 | 1000 to 10000 | 1000 to 10000 | 1000 to 10000 | – | –
7 | c1nc2c(-c3cn[nH]c3)ccc(-c3ccc(N4CCC5(CCCNC5)C4)nn3)c2s1 (stereo not shown) [Compound 191] | 1000 to 10000 | > 10000 | > 10000 | > 10000 | > 10000 | – | –
8 | Cn1cc(-c2ccc(-c3ccc(OC4CC(C)(C)NC(C)(C)C4)nn3)c3[nH]ncc23)cn1 [Compound 232, 4-(1-methylpyrazol-4-yl)-7-{6-[(2,2,6,6-tetramethylpiperidin-4-yl)oxy]pyridazin-3-yl}-1H-indazole] | 100 to 1000 | 1000 to 10000 | 1000 to 10000 | 100 to 1000 | 1000 to 10000 | – | –
9 | CC1(C)CC(Nc2ccc(-c3ccc(-c4cn[nH]c4)c4ncsc34)nn2)CC(C)(C)N1 [Compound 186] | < 100 | 100 to 1000 | < 100 | < 100 | < 100 | < 500 | < 500
10 | c1nc2c(-c3cn[nH]c3)ccc(-c3ccc(C4CCNCC4)nn3)c2s1 [Compound 206] | < 100 | > 10000 | 1000 to 10000 | > 10000 | 1000 to 10000 | – | –
11 | CCN(c1ccc(-c2ccc(-c3cn[nH]c3)c3ncsc23)nn1)[C@@H]1C[C@H]2CC[C@@H](C1)N2 [Compound 203, (exo-)-N-ethyl-N-[6-[4-(1H-pyrazol-4-yl)-1,3-benzothiazol-7-yl]pyridazin-3-yl]-8-azabicyclo[3.2.1]octan-3-amine] | < 100 | 100 to 1000 | 100 to 1000 | 100 to 1000 | 100 to 1000 | – | –
12 | c1nc2c(-c3cn[nH]c3)ccc(-c3ccc(N4CC5(CCCNC5)C4)nn3)c2s1 [Compound 187, 7-(6-{2,6-diazaspiro [3.5]nonan-2-yl}pyridazin-3-yl)-4-(1H-pyrazol-4-yl)-1,3-benzothiazole] | 1000 to 10000 | > 10000 | > 10000 | > 10000 | > 10000 | > 5000 | > 5000
13 | CN(c1ccc(-c2ccc(-c3cnn(C)c3)c3scnc23)nn1)C1CC(C)(C)NC(C)(C)C1 [Compound 175, N-methyl-6-[7-(1-methylpyrazol-4-yl)-1,3-benzothiazol-4-yl]-N-(2,2,6,6-tetramethylpiperidin-4-yl)pyridazin-3-amine] | 1000 to 10000 | > 10000 | > 10000 | 1000 to 10000 | > 10000 | – | –
14 | CN(c1ccc(-c2ccc(-n3cccn3)c3cc[nH]c23)nn1)[C@@H]1C[C@H]2CC[C@@H](C1)N2 [Compound 113, (1R,3R,5S)—N-methyl-N-[6-[4-(pyrazol-1-yl)-1H-indol-7-yl]pyridazin-3-yl]-8-azabicyclo[3.2.1]octan-3-amine] | – | – | – | – | – | 500 to 5000 | > 5000
15 | COc1cc(-c2ccc(-c3ccc(N(C)C4CC(C)(C)NC(C)(C)C4)nn3)c3ncsc23)cnn1 [Compound 233] | – | – | 100 to 1000 | 100 to 1000 | – | – | –
16 | CN(c1cnc(-c2cc(F)c(-c3cn[nH]c3)c3cn[nH]c23)nn1)[C@@H]1C[C@H]2CC[C@@H](C1)N2 [Compound 149] | – | – | – | – | – | < 500 | < 500
17 | CN(c1ccc(-c2ccc(-n3cccn3)c3cn[nH]c23)nn1)[C@@H]1C[C@H]2CC[C@@H](C1)N2 [Compound 105, (1R,3R,5S)—N-methyl-N-[6-[4-(pyrazol-1-yl)-1H-indazol-7-yl]pyridazin-3-yl]-8-azabicyclo[3.2.1]octan-3-amine] | – | – | – | – | – | < 500 | < 500
18 | [2H]C([2H])([2H])N(c1ccc(-c2ccc(-c3cn[nH]c3)c3cn[nH]c23)nn1)C1CCNCC1 [Compound 267] | – | – | > 10000 | > 10000 | – | – | –
19 | CN(c1ccc(-c2ccc(-n3cccn3)c3cn[nH]c23)nn1)C1CC(C)(C)NC(C)(C)C1 [Compound 150, N-methyl-6-[4-(pyrazol-1-yl)-1H-indazol-7-yl]-N-(2,2,6,6-tetramethylpiperidin-4-yl)pyridazin-3-amine] | – | – | – | – | – | 500 to 5000 | 500 to 5000
20 | c1n[nH]cc1-c1ccc(-c2ccc(NC3CNC3)nn2)c2[nH]ncc12 [Compound 237] | – | – | > 10000 | > 10000 | – | – | –
21 | CN(c1ccc(-c2ccc(-c3cnn(C)c(=O)c3)c3scnc23)nn1)C1CC(C)(C)NC(C)(C)C1 [Compound 211] | 100 to 1000 | 100 to 1000 | – | – | 100 to 1000 | – | –
22 | c1n[nH]cc1-c1ccc(-c2ccc(N3CCNCC3)nn2)c2[nH]ncc12 [Compound 241] | – | – | > 10000 | 1000 to 10000 | – | – | –
23 | CN(c1ccc(-c2ccc(-n3cccn3)c3nn[nH]c23)nn1)[C@@H]1C[C@H]2CC[C@@H](C1)N2 [Compound 119, (1R,3S,5S)—N-methyl-N-[6-[7-(pyrazol-1-yl)-3H-1,2,3-benzotriazol-4-yl]pyridazin-3-yl]-8-azabicyclo[3.2.1]octan-3-amine] | – | – | – | – | – | 500 to 5000 | > 5000
24 | CN(c1ccc(-c2ccc(-c3cn[nH]c3)c3cc[nH]c23)nn1)[C@@H]1C[C@H]2CC[C@@H](C1)N2 [Compound 112, (1R,3S,5S)—N-methyl-N-[6-[4-(1H-pyrazol-4-yl)-1H-indol-7-yl]pyridazin-3-yl]-8-azabicyclo[3.2.1] octan-3-amine] | – | – | – | – | – | < 500 | 500 to 5000
25 | c1n[nH]cc1-c1ccc(-c2ccc(N3CCC4(CCCNC4)C3)nn2)c2[nH]ncc12 (stereo not shown) [Compound 252] | – | – | > 10000 | > 10000 | – | – | –
26 | c1nc2c(-c3cn[nH]c3)ccc(-c3ccc(N4CCC5(CCN5)C4)nn3)c2s1 (stereo not shown) [Compound 265, 7-(6-{1,6-diazaspiro[3.4]octan-6-yl}pyridazin-3-yl)-4-(1H-pyrazol-4-yl)-1,3-benzothiazole] | – | – | > 10000 | > 10000 | – | – | –
27 | c1n[nH]cc1-c1ccc(-c2ccc(N3CCCC4(CCNC4)C3)nn2)c2[nH]ncc12 (stereo not shown) [Compound 253] | – | – | > 10000 | > 10000 | – | – | –
28 | c1n[nH]cc1-c1ccc(-c2ccc(N3CCC4(CCNC4)CC3)nn2)c2[nH]ncc12 [Compound 240] | – | – | > 10000 | > 10000 | – | – | –
29 | C[C@@H]1C[C@H](N(C)c2ccc(-c3ccc(-c4cn[nH]c4)c4c3NC(=O)C4)nn2)CCN1 [Compound 121, 7-(6-[methyl[(2R,4R)-2-methylpiperidin-4-yl]amino]pyridazin-3-yl)-4-(1H-pyrazol-4-yl)-1,3-dihydroindol-2-one] | – | – | – | – | – | – | > 5000
30 | c1nc2c(-c3cn[nH]c3)ccc(-c3ccc(N4CCC45CCNCC5)nn3)c2s1 [Compound 266] | – | – | 1000 to 10000 | > 10000 | – | – | –

Source: US20230140983A1, “PYRIDAZINE DERIVATIVES FOR MODULATING NUCLEIC ACID SPLICING” (REMIX THERAPEUTICS INC., priority 2020, published 2023)
